Assay results reported in US10975068B2, “6-aminopyridin-3-yl thiazoles as modulators of RORγT” (Janssen Pharmaceutica NV, priority 2016, dated 2021).

Assays:
full-length human RORγt = full-length human RORγt (Homo sapiens (Human), UniProt P51449); test: RORγt (full-length human) reporter assay, Conditions A; type: cell-based; settings: Conditions A; for IC50: read-out: RORγt (FL) Reporter Assay A, IC50; for inhibition at 6 µM: read-out: RORγt (FL) Reporter Assay A, % inhibition @ 6 μM
From the text: RORγt (Full-Length Human) Reporter Assay:
Cells used in this assay were transiently co-transfected with three different plasmids, one expressing the GAL4-DNA binding domain (DBD)-RORγt fusion protein under control of a CMV promoter (NH2-Gal4-DBD:RORC-COOH in pCMV-BD, Stratagene #211342), and two reporter plasmids—the firefly luciferase reporter under control of a GAL4 promoter (pFR-Luc 2×GAL4) and Renilla luciferase reporter under control of CMV promoter (pRL-CMV, Promega # E2261). The full-length coding sequence was used for human RORγt, i.e., nucleotides 142-1635 of human RORγt, transcript variant 2, NCBI Accession: NM_001001523.1 (SEQ ID NO:1). HEK293T cells were plated at 35000 per well in 96-well plate in medium of MEM with 8.6% FBS. After 18-22 hours incubation, the transfection was carried out by using a PEI solution with 170.5 ng total DNA/well (50 ng pCMV-BD-ROR plus 20 ng of pFR-Luc reporter and 0.5 ng of pRL-CMV reporter plus 100 ng Carrier DNA (Clontech #630440) for each well). 4-6 hours after transfection, cells were treated with compounds for overnight in the medium with final concentration of FBS 1.1% and DMSO 0.1%. After overnight (16 to 20 hours) incubation, media were removed and cells were lysed with 20 μL 1× Passive Lysis Buffer (Promega) for 10-15 minutes. Luminescence was measured using a BMG LUMIstar OPTIMA plate reader, after addition of 75 μL/well firefly luciferase buffer, followed by 75 μL/well Renilla luciferase buffer. To calculate the effect of compounds on RORγt activity, firefly values were normalized against values of DMSO only and values of reference compound at saturating concentration, then further normalized against Renilla signals. IC50s were generated by plotting final Renilla normalized data against compound concentration and percent inhibition was calculated against DMSO control.

[1] = biological target: human RORγt ligand binding domain (RORγt LBD) (Homo sapiens (Human), UniProt P51449); test: RORγt ThermoFluor® assay (thermal shift binding); settings: read-out: ThermoFluor® Assay, Kd
human RORγt ligand binding domain (RORγt LBD), sequence (P51449 other isoform, or with tags, fused parts or gaps): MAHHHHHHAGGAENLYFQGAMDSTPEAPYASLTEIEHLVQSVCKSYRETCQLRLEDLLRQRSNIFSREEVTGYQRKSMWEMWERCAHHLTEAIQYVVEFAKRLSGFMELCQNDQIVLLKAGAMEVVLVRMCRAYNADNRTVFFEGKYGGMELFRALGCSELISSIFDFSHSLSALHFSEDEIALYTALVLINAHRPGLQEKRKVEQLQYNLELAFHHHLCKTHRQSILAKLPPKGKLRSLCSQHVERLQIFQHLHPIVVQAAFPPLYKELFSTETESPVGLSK
Outline: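 His-tagged human RORγt LBD (0.065 mg/mL) with 60 μM 1,8-ANS in 100 mM Hepes pH 7.0, 10 mM NaCl, 2.5 mM GSH, 0.002% Tween-20 was heated at 1 °C/min.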

full-length human RORγt, sequence (P51449 other isoform, or with tags, fused parts or gaps): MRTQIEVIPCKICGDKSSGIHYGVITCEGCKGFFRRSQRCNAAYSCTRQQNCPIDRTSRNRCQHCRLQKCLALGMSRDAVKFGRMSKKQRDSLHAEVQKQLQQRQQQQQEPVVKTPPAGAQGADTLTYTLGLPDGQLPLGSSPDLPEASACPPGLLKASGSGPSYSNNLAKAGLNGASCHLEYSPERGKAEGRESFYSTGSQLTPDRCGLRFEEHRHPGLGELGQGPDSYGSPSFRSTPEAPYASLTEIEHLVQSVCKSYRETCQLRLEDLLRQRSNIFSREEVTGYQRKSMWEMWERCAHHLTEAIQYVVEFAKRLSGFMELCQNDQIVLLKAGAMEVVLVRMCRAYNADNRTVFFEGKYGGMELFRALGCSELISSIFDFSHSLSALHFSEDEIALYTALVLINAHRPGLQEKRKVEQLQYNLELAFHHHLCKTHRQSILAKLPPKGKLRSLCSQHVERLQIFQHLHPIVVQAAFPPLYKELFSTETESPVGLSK

IC50 (full-length human RORγt) [nM] | inhibition at 6 µM (full-length human RORγt) [%] | Kd [1] [nM] | RORγt (FL) Reporter Assay A, % inhibition (value marked **) (full-length human RORγt; marked **: footnote not shown) | Compound
470 | 105 | 130 | – | CC(C)(O)CNC(=O)c1nc(C(=O)N2CCC(F)CC2)c(-c2cnc(NC3CC(F)(F)C3)c(C(F)(F)F)c2)s1 [Example 16, 5-(6-((3,3-Difluorocyclobutyl)amino)-5-(trifluoromethyl)pyridin-3-yl)-4-(4-fluoropiperidine-1-carbonyl)-N-(2-hydroxy-2-methylpropyl)thiazole-2-carboxamide]
9 | – | 0.15 | 95** % | C[C@H]1CCCCN1C(=O)c1nc(C(=O)NC2CCS(=O)(=O)CC2)sc1-c1cnc(NC2CCCCC2)cc1C(F)(F)F [Example 17, (S)-5-(6-(Cyclohexylamino)-4-(trifluoromethyl)pyridin-3-yl)-N-(1,1-dioxidotetrahydro-2H-thiopyran-4-yl)-4-(2-methylpiperidine-1-carbonyl)thiazole-2-carboxamide]
620 | 106 | 80 | – | CC(C)(O)CNC(=O)c1nc(C(=O)N2CCC(F)CC2)c(-c2cnc(NC3CCC(F)(F)CC3)cc2C(F)(F)F)s1 [Example 18, 5-(6-((4,4-Difluorocyclohexyl)amino)-4-(trifluoromethyl)pyridin-3-yl)-4-(4-fluoropiperidine-1-carbonyl)-N-(2-hydroxy-2-methylpropyl)thiazole-2-carboxamide]
200 | 110 | 52 | – | CC(C)(O)CNC(=O)c1nc(C(=O)N2CCC(F)CC2)c(-c2cnc(NC3CCC(F)(F)C3)cc2C(F)(F)F)s1 (stereo not drawn) [Example 20, 5-(6-((3,3-Difluorocyclopentyl)amino)-4-(trifluoromethyl)pyridin-3-yl)-4-(4-fluoropiperidine-1-carbonyl)-N-(2-hydroxy-2-methylpropyl)thiazole-2-carboxamide]
910 | 84 | 440 | – | CC(C)(O)CNC(=O)c1nc(C(=O)N2CCC(F)CC2)c(-c2cnc(NC3CC4(C3)CC(F)(F)C4)cc2C(F)(F)F)s1 [Example 22, 5-(6-((6,6-Difluorospiro[3.3]heptan-2-yl)amino)-4-(trifluoromethyl)pyridin-3-yl)-4-(4-fluoropiperidine-1-carbonyl)-N-(2-hydroxy-2-methylpropyl)thiazole-2-carboxamide]
79 | 96 | 30 | – | CC(C)(O)CNC(=O)c1nc(C(=O)N2CCC(F)CC2)c(-c2cnc(NC3CCCC(F)(F)C3)cc2C(F)(F)F)s1 (stereo not drawn) [Example 23, 5-(6-((3,3-Difluorocyclohexyl)amino)-4-(trifluoromethyl)pyridin-3-yl)-4-(4-fluoropiperidine-1-carbonyl)-N-(2-hydroxy-2-methylpropyl)thiazole-2-carboxamide]
97 | 107 | 20 | – | CC(C)(O)CNC(=O)c1nc(C(=O)N2CCC(F)CC2)c(-c2cnc(NC3CC4(CCC4)C3)cc2C(F)(F)F)s1 [Example 24, 4-(4-Fluoropiperidine-1-carbonyl)-N-(2-hydroxy-2-methylpropyl)-5-(6-(spiro[3.3]heptan-2-ylamino)-4-(trifluoromethyl)pyridin-3-yl)thiazole-2-carboxamide]
78 | 106 | 79 | – | CC(C)(O)CNC(=O)c1nc(C(=O)N2CCC(F)CC2)c(-c2cnc(NC3CCCCC3)cc2C#N)s1 [Example 57, 5-(4-Cyano-6-(cyclohexylamino)pyridin-3-yl)-4-(4-fluoropiperidine-1-carbonyl)-N-(2-hydroxy-2-methylpropyl)thiazole-2-carboxamide]
770 | 93 | 170 | – | CC(C)(O)CNC(=O)c1nc(C(=O)N2CCC(F)CC2)c(-c2cnc(NC3CCCCC3)c(C#N)c2)s1 [Example 58, 5-(5-Cyano-6-(cyclohexylamino)pyridin-3-yl)-4-(4-fluoropiperidine-1-carbonyl)-N-(2-hydroxy-2-methylpropyl)thiazole-2-carboxamide]
430 | 90.3 | 160 | – | Cc1c(-c2sc(C(=O)NCC(C)(C)O)nc2C(=O)N2CCC(F)CC2)cnc(NC2CCCCC2)c1C#N [Example 60, 5-(5-Cyano-6-(cyclohexylamino)-4-methylpyridin-3-yl)-4-(4-fluoropiperidine-1-carbonyl)-N-(2-hydroxy-2-methylpropyl)thiazole-2-carboxamide]
160 | 98 | 12 | – | CC(C)(O)CNC(=O)c1nc(C(=O)N2CCC(F)CC2)c(-c2cnc(NC3CCCCC3)c(OC(F)F)c2)s1 [Example 62, 5-(6-(Cyclohexylamino)-5-(difluoromethoxy)pyridin-3-yl)-4-(4-fluoropiperidine-1-carbonyl)-N-(2-hydroxy-2-methylpropyl)thiazole-2-carboxamide]
150 | 85 | 41 | – | Cc1c(-c2sc(C(=O)NCC(C)(C)O)nc2C(=O)N2CCC(F)CC2)cnc(NC2CCCCC2)c1F [Example 66, 5-(6-(Cyclohexylamino)-5-fluoro-4-methylpyridin-3-yl)-4-(4-fluoropiperidine-1-carbonyl)-N-(2-hydroxy-2-methylpropyl)thiazole-2-carboxamide]
400 | 98 | 52 | – | Cc1cc(NC2CCCCC2)ncc1-c1sc(C(=O)NCC(C)(C)O)nc1C(=O)N1CCC(F)CC1 [Example 67, 5-(6-(Cyclohexylamino)-4-methylpyridin-3-yl)-4-(4-fluoropiperidine-1-carbonyl)-N-(2-hydroxy-2-methylpropyl)thiazole-2-carboxamide]
1100 | 70 | 370 | – | CC(C)(O)CNC(=O)c1nc(C(=O)N2CCC(F)CC2)c(-c2cnc(NC3CCCCC3)c(C#N)c2C(F)(F)F)s1 [Example 68, 5-(5-Cyano-6-(cyclohexylamino)-4-(trifluoromethyl)pyridin-3-yl)-4-(4-fluoropiperidine-1-carbonyl)-N-(2-hydroxy-2-methylpropyl)thiazole-2-carboxamide]
630 | 85 | 170 | – | CCOc1cc(NC2CCCCC2)ncc1-c1sc(C(=O)NCC(C)(C)O)nc1C(=O)N1CCC(F)CC1 [Example 69, 5-(6-(Cyclohexylamino)-4-ethoxypyridin-3-yl)-4-(4-fluoropiperidine-1-carbonyl)-N-(2-hydroxy-2-methylpropyl)thiazole-2-carboxamide]
130 | 108 | 36 | – | CCc1cc(NC2CCCCC2)ncc1-c1sc(C(=O)NCC(C)(C)O)nc1C(=O)N1CCC(F)CC1 [Example 70, 5-(6-(cyclohexylamino)-4-ethylpyridin-3-yl)-4-(4-fluoropiperidine-1-carbonyl)-N-(2-hydroxy-2-methylpropyl)thiazole-2-carboxamide]
